Laboratory results taken from US9468670B2, “Melatonin-based treatment and diagnosis of bile duct disease” (Texas A&M University System, priority 2011, dated 2016).

Legend:
[1] = tested on: MT2 vs. the MT1 subtype; settings: Shiu et al., 2010; cited from earlier work
[2] = tested on: large mouse cholangiocyte lines; assay: cAMP levels (RIA) in large mouse cholangiocyte lines; format: cell-based; settings: preincubation with antagonist (10 mM), melatonin 10^−11 M
From the text: (§1) The expression of MT1 and MT2 receptors in immortalized large cholangiocytes was first evaluated by immunofluorescence (Francis et al., 2008). Images were visualized using an Olympus IX-71 confocal microscope. For all immunoreactions, negative controls (with normal serum from the same species substituted for the primary antibody) were included. It was next evaluated by commercially available radioimmunoassay (RIA) kits ([…] et al., 1998; Kato et al., 1992; […] et al., 1999; […] et al., 2004) for cAMP levels ([…] et al., 1998; Kato et al., 1992; […] Shiu et al., 2010). […] […] et al., 1992; Ramirez-Rodriguez et al., 2009; […], 1999). […] Shiu et al., 2010) before evaluating by immunoblots (Francis et al., 2008) the expression of PCNA and the phosphorylation of PKA and EKR1/2.

[3] = tested on: large cholangiocyte lines; assay: PCNA expression and PKA, ERK1/2 phosphorylation (immunoblots) in immortalized large cholangiocytes; format: cell-based, mouse; settings: preincubation with antagonist (10 mM), melatonin 10^−11 M, 48 hours
From the text: as §1

[4] = target: T1, AANAT (Rattus norvegicus, UniProt Q64666); assay: Melatonin levels in serum and cholangiocyte supernatant (ELISA) of Morpholino-treated rats; format: in vivo; settings: normal rats
T1 construct: the expression of AANAT in liver sections and cholangiocytes from the selected groups of animals; from tissue; host or cells: Male Fischer 344 rats: liver sections, total liver, isolated cholangiocytes, pineal gland, small intestine, serum
T1 sequence (Q64666 whole entry): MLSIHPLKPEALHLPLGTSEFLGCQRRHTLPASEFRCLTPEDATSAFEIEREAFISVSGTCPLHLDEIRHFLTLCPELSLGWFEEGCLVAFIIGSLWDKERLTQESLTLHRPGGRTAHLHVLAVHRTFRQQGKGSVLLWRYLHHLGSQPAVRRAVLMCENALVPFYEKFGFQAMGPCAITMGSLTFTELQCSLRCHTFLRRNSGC
Protocol: In separate experiments, normal rats treated with Vivo-Morpholino sequences of AANAT (5'-[…] NO:1), to reduce the biliary expression of AANAT) or Morpholino mismatched (5'-[…] NO:2)) (Gene Tools LCC) (1 mg/Kg BW/day) for 1 week via an implanted portal vein catheter. Serum, liver tissue, cholangiocytes, kidney, spleen, small intestine, stomach and heart were collected. Since our goal was to knock-down AANAT expression in the liver without inhibiting AANAT expression in other organs, we used a lower dose (1 mg/Kg/day) of Vivo-Morpholino than that described in the original study (3.0 mg/kg/day (Arora et al., 2002). This approach minimizes the amount of Vivo-Morpholino that circulates outside of the liver after slow infusion into the portal vein. See below for the surgical procedure for the implantation of the portal vein catheter by which AANAT Vivo-Morpholino or Morpholino mismatched was administered. Melatonin levels in serum and medium of primary cultures of isolated cholangiocytes were determined by ELISA kits (Genway, San Diego, Calif.). Supernatants were obtained from cholangiocytes (1×10^7 cells/ml) that were incubated for 6 hours at 37° C. (Glaser et al., 2008).

[5] = rat, in vivo, 1 mg/kg/day
Protocol: (§2) In separate experiments, normal rats treated with Vivo-Morpholino sequences of AANAT (5′-[…] (SEQ ID NO:1), to reduce the biliary expression of AANAT) or Morpholino mismatched (5′-[…] (SEQ ID NO:2)) (Gene Tools LCC) (1 mg/Kg BW/day) for 1 week via an implanted portal vein catheter. Serum, liver tissue, cholangiocytes, kidney, spleen, small intestine, stomach and heart were collected. Since our goal was to knock-down AANAT expression in the liver without inhibiting AANAT expression in other organs, we used a lower dose (1 mg/Kg/day) of Vivo-Morpholino than that described in the original study (3.0 mg/kg/day (Arora et al., 2002). This approach minimizes the amount of Vivo-Morpholino that circulates outside of the liver after slow infusion into the portal vein. See below for the surgical procedure for the implantation of the portal vein catheter by which AANAT Vivo-Morpholino or Morpholino mismatched was administered.
(§3) Biliary proliferation was determined by measurement of the percentage of PCNA-positive cholangiocytes by immunohistochemistry, and intrahepatic bile duct mass (IBDM) by immunohistochemistry for CK-19 (Mancinelli et al., 2010). Biliary apoptosis was evaluated by semiquantitative terminal deoxynucleotidyltransferase biotin-dUTP nick-end labeling (TUNEL) kit (Chemicon International, Inc., Temecula, Calif.) (Mancinelli et al., 2010). IBDM was determined as the area occupied by CK-19 positive-bile duct/total area×100 (Mancinelli et al., 2010). The morphological changes/damage in liver, spleen, kidney, heart, stomach, and small intestine were evaluated from AANAT Vivo-Morpholino- or mismatch-treated rats by H&E staining. The serum levels of the transaminases, glutamate pyruvate transaminases (SGPT) and glutamic oxaloacetic transaminase (SGOT), alkaline phosphatase (ALP) and total bilirubin were evaluated using a Dimension RxL Max Integrated Chemistry system (Dade Behring Inc., Deerfield Ill.), Chemistry Department, Scott & White.

[6] = tested on: SR, CFTR, Cl−/HCO3− AE2, VEGF-A/C; assay: Expression of PCNA, SR, CFTR, Cl−/HCO3− AE2, VEGF-A/C in liver sections, liver tissue and cholangiocytes of Morpholino-treated rats; format: in vivo, rat; settings: normal rats, 1 week
Protocol: as §2
By real-time PCR (Francis et al., 2008), the expression of PCNA, SR, CFTR, Cl^−/HCO3^− AE2, VEGF-A/C was evaluated in total RNA from: (i) cholangiocytes from normal rats, and BDL rats treated with melatonin; and (ii) liver tissue and cholangiocytes from rats treated with mismatch or AANAT Vivo-Morpholino for 1 week. A ΔΔCT analysis was obtained using normal cholangiocytes or normal total liver as control samples (Francis et al., 2008). The primers for rat PCNA, SR, CFTR, Cl^−/HCO3^− AE2, VEGF-A/C (SABiosciences) were designed according to the NCBI GenBank Accession numbers: NM_022381 (PCNA); NM_031115 (SR); NM_017048 (Cl^−/HCO3^− AE2); XM_001059206 (CFTR); NM_031836 (VEGF-A); and NM_053653 (VEGF-C). The percentage of cholangiocytes positive for SR, CFTR, Cl^−/HCO3^− AE2 and VEGF-A/C was evaluated in liver sections: when 0%-5% of bile ducts were positive a negative score was assigned; a +/−score was assigned when 6%-10% of ducts were positive; a +score was assigned when 11%-30% of bile ducts were positive (Glaser et al., 2009).

[7] = tested on: cholangiocytes; assay: Biliary proliferation (PCNA, IBDM) and apoptosis (TUNEL) in Morpholino-treated rats; format: in vivo, rat; settings: normal rats, 1 mg/Kg BW/day for 1 week via portal vein catheter
Protocol: as §2, §3

Compound: CCC(=O)NC1Cc2ccccc2C(c2ccccc2)C1 (stereo not shown) [4-P-PDOT, 4-Phenyl-2-propionamidotetralin]
- Selectivity for the MT2 vs. the MT1 subtype [1]: > 300 fold
- Prevention of the melatonin-induced decrease in cAMP levels [2]: not

Compound: CC(=O)NCCc1c(Cc2ccccc2)[nH]c2ccccc12 [luzindole]
- Prevention of the melatonin-induced decreases in PCNA expression and PKA, ERK2 phosphorylation [3]: prevented
- Prevention of the melatonin-induced decrease in cAMP levels [2]: prevented

Compound: mismatch Morpholino: Morpholino mismatched 5′-GTTCCCGACCTTTGCAACTCGTCCC (SEQ ID NO:2), control for AANAT Vivo-Morpholino (all phosphorodiamidate morpholino (PMO); further chemistry not fully specified)
- Melatonin supernatant ([4]; cholangiocyte supernatant, 6 hours at 37° C., 1 mg/Kg BW/day for 1 week): 5.8 ± 0.6 pg/mL
- Melatonin serum ([4]; 1 mg/Kg BW/day for 1 week via portal vein catheter): 46.4 ± 10.1 pg/mL
- ALP [5]: 230.7 ± 9 Units/L
- SGOT [5]: 120.5 ± 10.5 Units/L
- SGPT [5]: 67.75 ± 4.6 Units/L
- Total bilirubin [5]: <0.1 mg/L
- Immunoreactivity of cholangiocytes to Cl−HCO3− AE2 [6]: +/− (a +/−score was assigned when 6%-10% of ducts were positive)
- Immunoreactivity of cholangiocytes to SR [6]: +/− (a +/−score was assigned when 6%-10% of ducts were positive)
- Immunoreactivity of cholangiocytes to VEGF-A [6]: +/− (a +/−score was assigned when 6%-10% of ducts were positive)
- % IBDM [7]: 0.30 ± 0.04%
- % PCNA-positive cholangiocytes [7]: 8.00 ± 0.7%
- % apoptotic cholangiocytes [7]: <5%
